Laboratory results from article PMC9391358, “Crystal structures reveal catalytic and regulatory mechanisms of the dual-specificity ubiquitin/FAT10 E1 enzyme Uba6” (Nature Communications, 2022).
Values belong to the compound of their own block, whether it stands above or below them.

Assays:
Uba6 SCCH domain = biological target: T1, Uba6 SCCH domain (Homo sapiens, UniProt A0AVT1); assay: thermal shift assay (SYPRO Orange); assay type: binding; conditions: ~43 °C without ligand, 20 mM HEPES pH 7.5, 150 mM NaCl, 0.25 mM TCEP, E. coli-derived
T1 construct: standalone SCCH domain, residues 615-892, E. coli, SMT3 tag cleaved by ULP1
T1 sequence (A0AVT1 615-892): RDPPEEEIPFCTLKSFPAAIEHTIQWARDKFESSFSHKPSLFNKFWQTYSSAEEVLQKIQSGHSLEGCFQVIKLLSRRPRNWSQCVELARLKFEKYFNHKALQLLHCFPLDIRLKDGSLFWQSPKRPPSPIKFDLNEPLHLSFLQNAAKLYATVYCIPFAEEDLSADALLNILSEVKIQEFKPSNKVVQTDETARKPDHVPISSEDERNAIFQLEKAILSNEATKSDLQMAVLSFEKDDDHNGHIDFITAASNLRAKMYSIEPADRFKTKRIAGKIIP

Uba6 (Uba6_Apo; Uba6_WT) [1] = biological target: T2, Uba6 (Uba6_Apo; Uba6_WT) (Homo sapiens, UniProt A0AVT1); assay: isothermal titration calorimetry; assay type: binding
T2 construct: residues 37-1052; crystal from insect cells, His tag cleaved by TEV, C625A
T2 sequence (A0AVT1 37-1052): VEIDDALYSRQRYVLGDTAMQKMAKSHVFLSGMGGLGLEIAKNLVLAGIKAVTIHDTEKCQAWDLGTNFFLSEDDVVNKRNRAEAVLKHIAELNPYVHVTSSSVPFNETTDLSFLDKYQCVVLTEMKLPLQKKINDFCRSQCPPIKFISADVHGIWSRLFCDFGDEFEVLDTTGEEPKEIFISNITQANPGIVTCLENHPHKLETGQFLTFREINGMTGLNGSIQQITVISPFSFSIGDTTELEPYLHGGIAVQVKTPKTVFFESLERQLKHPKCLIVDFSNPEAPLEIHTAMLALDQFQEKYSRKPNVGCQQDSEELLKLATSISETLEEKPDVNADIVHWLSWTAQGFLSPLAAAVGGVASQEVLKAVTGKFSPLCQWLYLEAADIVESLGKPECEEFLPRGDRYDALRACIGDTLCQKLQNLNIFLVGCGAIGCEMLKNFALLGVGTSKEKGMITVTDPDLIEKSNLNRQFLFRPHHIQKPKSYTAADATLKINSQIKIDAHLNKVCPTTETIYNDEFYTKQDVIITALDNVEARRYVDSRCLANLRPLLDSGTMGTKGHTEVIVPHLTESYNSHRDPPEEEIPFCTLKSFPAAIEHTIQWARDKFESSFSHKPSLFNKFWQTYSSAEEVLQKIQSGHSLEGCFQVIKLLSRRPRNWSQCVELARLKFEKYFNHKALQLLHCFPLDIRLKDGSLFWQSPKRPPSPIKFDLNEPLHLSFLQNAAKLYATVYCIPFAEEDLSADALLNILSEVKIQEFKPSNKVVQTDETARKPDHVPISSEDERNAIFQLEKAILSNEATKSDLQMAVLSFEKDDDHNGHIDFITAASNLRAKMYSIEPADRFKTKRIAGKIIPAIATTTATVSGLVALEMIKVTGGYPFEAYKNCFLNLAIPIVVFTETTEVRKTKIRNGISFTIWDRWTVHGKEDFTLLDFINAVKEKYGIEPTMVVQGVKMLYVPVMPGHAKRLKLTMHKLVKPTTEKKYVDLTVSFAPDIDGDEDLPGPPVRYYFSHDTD

Uba1 (Uba1_WT) = biological target: T3, Uba1 (Uba1_WT) (Homo sapiens, UniProt P22314); assay: gel-based Uba1~Ub thioester formation, […] s; assay type: biochemical; conditions: ubiquitin 2.5 μM, 0-50 μM InsP6, 100 nM E1, 500 μM ATP, 5 mM MgCl2, pH 7.4, RT
T3 construct: E. coli-produced Uba1; a Uba1 SCCH domain (625-892) was also made and may be the ITC sample
T3 sequence (P22314 2-1058): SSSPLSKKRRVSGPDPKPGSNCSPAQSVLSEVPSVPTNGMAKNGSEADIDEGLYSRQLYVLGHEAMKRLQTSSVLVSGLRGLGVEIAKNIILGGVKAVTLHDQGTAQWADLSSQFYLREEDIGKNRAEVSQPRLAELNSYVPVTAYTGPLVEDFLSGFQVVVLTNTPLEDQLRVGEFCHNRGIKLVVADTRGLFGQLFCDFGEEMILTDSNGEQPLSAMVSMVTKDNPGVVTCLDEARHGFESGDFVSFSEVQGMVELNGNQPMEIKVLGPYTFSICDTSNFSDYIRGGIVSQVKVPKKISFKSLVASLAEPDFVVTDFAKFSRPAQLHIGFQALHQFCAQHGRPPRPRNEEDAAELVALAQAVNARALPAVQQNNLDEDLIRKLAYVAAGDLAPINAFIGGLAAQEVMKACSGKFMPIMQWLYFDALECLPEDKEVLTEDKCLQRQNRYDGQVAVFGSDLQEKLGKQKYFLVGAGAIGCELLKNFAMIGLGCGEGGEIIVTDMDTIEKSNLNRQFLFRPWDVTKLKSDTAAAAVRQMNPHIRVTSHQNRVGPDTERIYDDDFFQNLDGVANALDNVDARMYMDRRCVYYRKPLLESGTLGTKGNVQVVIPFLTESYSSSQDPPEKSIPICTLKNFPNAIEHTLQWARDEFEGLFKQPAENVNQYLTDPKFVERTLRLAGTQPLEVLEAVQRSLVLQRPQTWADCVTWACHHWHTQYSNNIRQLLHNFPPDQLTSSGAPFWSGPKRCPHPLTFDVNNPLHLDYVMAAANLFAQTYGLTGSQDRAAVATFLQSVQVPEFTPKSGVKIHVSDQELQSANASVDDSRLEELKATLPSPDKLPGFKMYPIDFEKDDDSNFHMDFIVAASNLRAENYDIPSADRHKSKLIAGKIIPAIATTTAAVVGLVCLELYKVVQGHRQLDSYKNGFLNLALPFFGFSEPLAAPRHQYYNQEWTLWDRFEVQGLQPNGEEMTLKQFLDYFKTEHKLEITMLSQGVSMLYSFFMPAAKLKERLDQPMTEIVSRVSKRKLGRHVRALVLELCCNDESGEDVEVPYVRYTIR

Uba6 (Uba6_Apo; Uba6_WT) [2] = biological target: T2, Uba6 (Uba6_Apo; Uba6_WT); assay: binding test, method not given

- melting temperature (Uba6 SCCH domain; 100 μM InsP3): 47 °C
- Kd (Uba6 (Uba6_Apo; Uba6_WT) [1]): 0.248 µM
SMILES: O=P(O)(O)O[C@@H]1[C@H](O)[C@H](O)[C@@H](OP(=O)(O)O)[C@H](OP(=O)(O)O)[C@H]1O [InsP3, D-myo-Inositol 1,4,5-trisphosphate]

- melting temperature (Uba6 SCCH domain; 100 μM InsP5): 54 °C
- Kd (Uba6 (Uba6_Apo; Uba6_WT) [1]): 0.073 µM
SMILES: O=P(O)(O)O[C@@H]1[C@@H](OP(=O)(O)O)[C@H](OP(=O)(O)O)[C@H](O)[C@H](OP(=O)(O)O)[C@H]1OP(=O)(O)O [InsP5, D-myo-Inositol 1,3,4,5,6-pentakisphosphate]

SMILES: O=P(O)(O)O[C@H]1[C@H](OP(=O)(O)O)[C@@H](OP(=O)(O)O)[C@H](OP(=O)(O)O)[C@@H](OP(=O)(O)O)[C@H]1OP(=O)(O)O [InsP6]
- IC50 (Uba1 (Uba1_WT)): InsP6 failed to inhibit Uba1 activation of Ub

SMILES: O[C@H]1[C@H](O)[C@@H](O)[C@H](O)[C@@H](O)[C@H]1O [myo-inositol]
- binding test, method not given (Uba6 (Uba6_Apo; Uba6_WT) [2]): myo-inositol (which lacks phosphates) fails to bind with Uba6 with detectable affinity
